Counter-ions that a name gives are not always drawn.
Assay: chemical compatibility of ranitidine hydrochloride and acetylsalicylic acid in contact
Format: physicochemical
Settings: the two actives in physical contact; degradation products form, reaction manifest in a matter of days
From the text: British Patent No 2,105,193 discloses pharmaceutical compositions comprising a systemic non-steroidal anti-inflammatory drug and ranitidine or a physiologically acceptable salt thereof. […] These two active ingredients react chemically with each other to produce degradation products. The reaction becomes manifest in a matter of days and implies a serious stability problem for pharmaceutical compositions containing both active ingredients.

Structure (SMILES): CNC(=C[N+](=O)[O-])NCCSCc1ccc(CN(C)C)o1 [ranitidine hydrochloride, N-[2-[[[5-(dimethylamino)methyl]-2-furanyl]methyl]thio]ethyl-N′-methyl-2-nitro-1,1-ethanediamine]
- chemical compatibility with acetylsalicylic acid: clear chemical incompatibility

— patent US20050020671A1, “Pharmaceutical formulation” (priority 2001, published 2005)
